For one assay, the target named is Xanthine oxidase (from bovine milk, Sigma) (Bos taurus (Bovine), UniProt P80457). The assay can be described thus: Xanthine oxidase inhibitory activity. It is filed as biochemical. The following applies: 100 μM xanthine final, absorbance at 290 nm. Summed up: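 Bovine milk enzyme at 0.02 units/mL in PBS was mixed with compound (DMSO stock diluted in PBS) and 200 μM xanthine stock, reacting 10 min at room temperature. Uric acid formation was read as absorbance at 290 nm; IC50 was derived with no-xanthine wells as 0% and no-compound control as 100%.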
Sequence of human URAT1 (Q96S37 whole entry): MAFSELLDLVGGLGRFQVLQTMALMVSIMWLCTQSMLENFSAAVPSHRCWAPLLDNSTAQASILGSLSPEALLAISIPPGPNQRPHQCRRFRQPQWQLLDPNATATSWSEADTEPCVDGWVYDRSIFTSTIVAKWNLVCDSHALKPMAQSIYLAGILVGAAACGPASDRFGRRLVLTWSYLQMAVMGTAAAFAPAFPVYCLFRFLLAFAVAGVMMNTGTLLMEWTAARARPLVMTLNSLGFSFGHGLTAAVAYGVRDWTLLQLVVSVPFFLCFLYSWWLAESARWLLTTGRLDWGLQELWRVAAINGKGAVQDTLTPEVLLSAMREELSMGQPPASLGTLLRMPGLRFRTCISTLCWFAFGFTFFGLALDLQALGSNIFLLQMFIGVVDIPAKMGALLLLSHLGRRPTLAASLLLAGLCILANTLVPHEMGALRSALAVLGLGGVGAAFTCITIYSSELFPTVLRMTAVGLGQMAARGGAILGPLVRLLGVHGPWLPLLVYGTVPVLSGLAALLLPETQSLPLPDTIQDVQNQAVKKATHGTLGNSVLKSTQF
Sequence of Xanthine oxidase (from bovine milk, Sigma) (P80457 whole entry): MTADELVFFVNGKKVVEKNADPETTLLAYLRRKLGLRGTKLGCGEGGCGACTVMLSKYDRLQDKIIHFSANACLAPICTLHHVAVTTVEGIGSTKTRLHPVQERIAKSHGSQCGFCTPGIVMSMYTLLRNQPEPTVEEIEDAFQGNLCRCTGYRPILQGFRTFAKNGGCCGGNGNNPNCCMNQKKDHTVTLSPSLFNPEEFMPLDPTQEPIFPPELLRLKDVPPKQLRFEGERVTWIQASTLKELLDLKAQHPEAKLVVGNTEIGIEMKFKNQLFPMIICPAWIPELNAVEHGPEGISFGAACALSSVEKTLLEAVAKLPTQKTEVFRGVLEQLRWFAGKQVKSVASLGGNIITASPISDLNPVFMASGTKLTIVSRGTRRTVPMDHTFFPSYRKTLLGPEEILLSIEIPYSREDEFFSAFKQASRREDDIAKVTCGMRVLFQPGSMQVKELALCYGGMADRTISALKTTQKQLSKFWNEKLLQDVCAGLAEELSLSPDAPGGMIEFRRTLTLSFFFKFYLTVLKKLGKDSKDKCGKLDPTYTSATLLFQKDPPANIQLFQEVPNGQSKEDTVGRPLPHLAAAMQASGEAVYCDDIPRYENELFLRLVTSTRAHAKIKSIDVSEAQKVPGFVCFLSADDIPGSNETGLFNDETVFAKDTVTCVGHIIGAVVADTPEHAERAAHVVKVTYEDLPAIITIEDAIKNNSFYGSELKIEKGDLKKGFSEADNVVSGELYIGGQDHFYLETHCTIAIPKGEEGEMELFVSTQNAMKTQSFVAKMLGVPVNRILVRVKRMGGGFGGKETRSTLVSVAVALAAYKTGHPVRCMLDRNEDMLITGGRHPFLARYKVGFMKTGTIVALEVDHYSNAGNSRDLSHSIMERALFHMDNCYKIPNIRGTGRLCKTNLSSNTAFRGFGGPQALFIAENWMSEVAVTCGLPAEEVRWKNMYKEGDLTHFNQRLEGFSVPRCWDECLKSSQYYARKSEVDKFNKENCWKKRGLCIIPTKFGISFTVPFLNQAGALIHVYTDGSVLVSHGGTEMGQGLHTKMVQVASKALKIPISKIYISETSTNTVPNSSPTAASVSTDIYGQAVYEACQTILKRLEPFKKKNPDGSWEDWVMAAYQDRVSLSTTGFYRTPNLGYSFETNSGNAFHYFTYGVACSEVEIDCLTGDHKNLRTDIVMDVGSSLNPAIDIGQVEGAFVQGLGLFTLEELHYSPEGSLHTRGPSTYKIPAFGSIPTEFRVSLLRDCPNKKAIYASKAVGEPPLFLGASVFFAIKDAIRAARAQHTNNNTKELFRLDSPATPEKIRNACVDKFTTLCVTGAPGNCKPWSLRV
For orientation: IC50 means the concentration that inhibits the measured activity by half. Lower therefore signals inhibition by little substance. Molecule `N#Cc1cn(-c2ccc(C(=O)O)c(O)c2)cc1-c1ccccc1` [Example 301] showed an IC50 of 6.2 nM. Still for that read-out and setting: with `CCCCc1cn(-c2ccc(C(=O)O)c(O)c2)cc1C#N` [Example 355] the figure was 3.3 nM; with `N#Cc1cn(-c2ccc(C(=O)O)c(O)c2)cc1-c1ccsc1` [Example 314], 5.2 nM; with `N#Cc1cn(-c2ccc(C(=O)O)c(O)c2)cc1-c1ccc(C(=O)O)cc1` [Example 337], 4 nM. The same measure, in the same setting: with `N#Cc1cn(-c2ccc(C(=O)O)c(O)c2)cc1-c1ccc(Cl)cc1` [Example 315] the figure was 14.6 nM.

`Cc1ccccc1-c1cn(-c2cc(C(=O)O)ccn2)cc1C#N` [Example 361] gave an IC50 of 88.5 nM. The molecule `COCCOc1ccc(-c2cn(-c3ccc(C(=O)O)c(O)c3)cc2C#N)cc1` [Example 347] registered an IC50 of 12.2 nM. The molecule `N#Cc1cn(-c2ccc(C(=O)O)c(O)c2)cc1-c1cccc2c1OCO2` [Example 322] had an IC50 of 6.5 nM. In the case of `COc1ccc(-c2cn(-c3ccc(C(=O)O)c(O)c3)cc2C#N)c(C)c1` [Example 276], it took 7.7 nM to reach half-maximal inhibition (IC50). The IC50 values of the last two molecules are within 1.5-fold of each other. In the case of `N#Cc1cn(-c2ccc(C(=O)O)c(O)c2)cc1-c1cccs1` [Example 306], the 50% inhibitory concentration (IC50) worked out at 7.8 nM. Same read-out and setting: the figure for `N#Cc1cn(-c2ccc(C(=O)O)c(O)c2)cc1C(F)(F)F` [Example 300] is 7.9 nM; for `N#Cc1cn(-c2ccc(C(=O)O)c(O)c2)nc1-c1ccccc1` [Example 302] it is 4.9 nM. `Cc1ccc(-c2cn(-c3cc(C(=O)O)ccn3)cc2C#N)cc1` [Example 363] displayed an IC50 of 21.3 nM. This IC50 lies about 4.3-fold higher than the previous one.

Regarding `N#Cc1cn(-c2ccc(C(=O)O)c(O)c2)cc1-c1cc(F)ccc1F` [Example 277], inhibition was half-maximal at 10.1 nM (IC50). This IC50 is about 2.1-fold lower than that of the molecule before. On the same count and under the same terms, the figure for `COc1ccc(-c2cn(-c3ccc(C(=O)O)c(O)c3)cc2C#N)cc1OC` [Example 285] is 3.9 nM; for `N#Cc1cn(-c2cc(C(=O)O)ccn2)cc1-c1cccs1` [Example 360] it is 145 nM.

Still in this assay, the particulars now being: 0.02 units/mL, xanthine 200 μM, 10 minutes at room temperature, absorbance at 290 nm.
`N#Cc1cn(-c2cc(C(=O)O)ccn2)cc1-c1ccccc1` [Example 20, 2-(3-Cyano-4-phenylpyrrole-1-yl)isonicotinic acid]: 52.1 nM corresponded to half-maximal inhibition (IC50). With `N#Cc1cn(-c2ccc(C(=O)O)cc2)cc1-c1ccccc1OCc1ccc(F)cc1` [Example 172], the IC50 came to 49.1 nM. On the same count and under the same terms, the figure for `COCOc1cccc(-c2cn(-c3ccc(C(=O)O)cc3)cc2C#N)c1` [Example 144] is 5.8 nM; for `CC(=O)Nc1nn(-c2ccc(C(=O)O)cc2)cc1C#N` [Example 27, 4-(3-Acetylamino-4-cyanopyrazole-1-yl)benzoic acid] it is 7.1 nM; for `N#Cc1cn(-c2ccc(C(=O)O)cc2)cc1-c1ccccc1Oc1ccccc1` [Example 164] it is 33.2 nM. On the same count and under the same terms, the figure for `COc1cn(-c2ccc(C(=O)O)cc2)cc1C#N` [Example 220] is 11.1 nM. `CCCc1c(C#N)cn(-c2ccc(C(=O)O)cc2)c1C` [Example 239] had an IC50 of 15 nM. In turn, `N#Cc1cn(-c2ccc(C(=O)O)cc2)nc1NC(=O)Cc1ccccc1` [Example 263] returned a half-maximal inhibitory concentration (IC50) of 4.6 nM. With `N#Cc1cn(-c2ccc(C(=O)O)c(O)c2)cc1-c1cccc(F)c1F` [Example 270], the IC50 came to 24.2 nM. On the same count and under the same terms, the figure for `CN(C)C(=O)c1cn(-c2ccc(C(=O)O)cc2)cc1C#N` [Example 226] is 19.7 nM. The molecule `COc1cccc(COc2ccccc2-c2cn(-c3ccc(C(=O)O)cc3)cc2C#N)c1` [Example 184] came in with an IC50 of 71.9 nM. This IC50 lies about 3.6-fold higher than the previous one.

`N#Cc1cn(-c2ccc(C(=O)O)cc2)cc1-c1cccc(-c2ccccc2)c1` [Example 162] displayed an IC50 of 55.1 nM.

As for `N#Cc1cn(-c2ccc(C(=O)O)cc2)cc1CCC1CCCO1` (centres unmarked) [Example 259], the IC50 was 4.7 nM. `N#Cc1cn(-c2ccc(C(=O)O)cc2)cc1-c1ccccc1-c1ccccc1` [Example 161] displayed an IC50 of 31.9 nM.

A further assay concerns BBMV from human kidney cortex. As to the kind of experiment: Inhibitory activity of uric acid transport with brush-border membrane vesicles (BBMV). Conditions: test compound 100 μM; uptake of 14C-labeled uric acid into human kidney cortex BBMV. It is filed as biochemical. The procedure: Inhibitory activity of uric acid transport of test compounds was performed on the basis of methods described in a reference (Am. J. Physiol. 266 (Renal Fluid Electrolyte Physiol. 35): F797-F805, 1994) with a partial modification.
(1) Preparation of BBMV from Human Kidney Cortex
BBMV from human kidney cortex were purchased from KAC. Renal cortex was dissected from human kidney and cut into small pieces. Then, the cortex was homogenized in 5 volumes of ice-cold isotonic buffer (300 mM mannitol, 5 mM ethylene glycol-bis-(β-aminoethylether)-N,N,N′,N′-tetraacetic acid (EGTA), 12 mM tris(hydroxymethyl)aminomethane (Tris).HCl, pH 7.4). After adding 1 M magnesium chloride to a final concentration of 12 mM, and then the suspension was mixed and allowed to stand on ice for 15 minutes. The homogenized solution was centrifuged at 2,500×g for 15 minutes at 4° C., furthermore, the supernatant was centrifuged at 30,000×g for 30 minutes at 4° C. The pellet was resuspended in ice-cold buffer 1 (150 mM mannitol, 2.5 mM EGTA, 6 mM Tris.HCl, pH 7.4). After adding 1 M magnesium chloride to a final concentration of 12 mM, and then the suspension was mixed and allowed to stand on ice for 15 minutes. After centrifugation again at 2,500×g for 15 minutes at 4° C., furthermore, the supernatant was centrifuged at 30,000×g for 30 minutes at 4° C. The pellet was resuspended in ice-cold buffer 2 (100 mM mannitol, 100 mM potassium gluconate, 20 mM 2-[4-(2-hydroxyethyl)-1-piperazinyl]-ethanesulfonic acid (Hepes)-Tris, pH 7.4). After centrifugation at 30,000×g for 30 minutes at 4° C., the pellet was resuspended in buffer 2, and then the protein concentration was determined
(2) Preparation of Test Compounds […]
BBMV were thawed on ice. […] The uptake of uric acid into BBMV was measured by the rapid-filtration technique. […] Furthermore, filters were washed twice with 3 mL of stop solution and dissolved in 10 mL of Filter-Count (PerkinElmer), and the radioactivity was counted in a liquid scintillation counter (PerkinElmer). The radioactivity associated with the filters in the absence of BBMV was used as corrections. […]
For the molecule `CCCCc1cn(-c2ccc(C(=O)O)c(O)c2)cc1C#N` [Example 355], the inhibition % is on record as above 90%. Still for that read-out and setting: with `N#Cc1cn(-c2cc(C(=O)O)ccn2)cc1-c1ccccc1` [Example 20, 2-(3-Cyano-4-phenylpyrrole-1-yl)isonicotinic acid] the figure was above 90%; with `N#Cc1cn(-c2ccc(C(=O)O)c(O)c2)cc1-c1cccs1` [Example 306], above 90%.

Another assay concerns the target human URAT1 (Homo sapiens (Human), UniProt Q96S37). The assay can be described thus: Inhibitory activity of uric acid transport with human URAT1 expressing cells. It is filed as cell-based. Conditions: COS-7; test compound 100 μM; 14C-labeled uric acid uptake in COS7 cells transiently expressing human URAT1. Here is the method: (1) Preparation of Transiently Human URAT1 Expressing Cells
Full length human URAT1 cDNA (NCBI Accession No. NM_144585) was subcloned into expression vector, pcDNA3.1 (Invitrogen). Human URAT1 expression vector was transfected into COS7 cells (RIKEN CELL BANK RCB0539) using Lipofectamine 2000 (Invitrogen). COS7 cells were cultured in collagen-coated 24 well plates (Asahi Techno Glass) at 2×10^5/well in D-MEM culture medium (Invitrogen) containing 10% fetal bovine serum (Sanko Junyaku) for 2 hours at 37° C. under the condition of 5% CO2. For 1 well, 2 μL of Lipofectamine 2000 was diluted in 50 μL of OPTI-MEM (Invitrogen) and allowed to stand at room temperature for 7 minutes (hereinafter referred to as Lipo2000-OPTI). For 1 well, 0.8 μg of human URAT1 expression vector was diluted in 50 μL of OPTI-MEM (Invitrogen) and combined gently with Lipo2000-OPTI. After standing at room temperature for 25 minutes, the mixture was added to COS7 cells at 100 μL/well. Furthermore, COS7 cells were cultured for 2 days at 37° C. under the condition of 5% CO2 and used for measuring inhibitory activity on the uptake.
(2) Preparation of Test Compounds
Test compounds were dissolved in DMSO (Wako) at 10 mM concentration and then diluted to 2 times higher concentration than intended with pre-treatment buffer (125 mM sodium gluconate, 4.8 mM potassium gluconate, 1.2 mM potassium dihydrogen phosphate, 1.2 mM magnesium sulfate, 1.3 mM calcium gluconate, 5.6 mM glucose, 25 mM Hepes, pH 7.4). Pre-treatment buffer without test compounds was used for control. […]
All tests were performed on hot-plate at 37° C. […] After mixing, the radioactivity was counted in a liquid scintillation counter (PerkinElmer). The radioactivity in COST cells not transfected with URAT1 expression vector was also counted under the same condition as control. […] Percent inhibition (%)=[1−(B−C)/(A−C)]×100 A: Radioactivity in control B: Radioactivity in the case of addition of test compounds C: Radioactivity in COST cells not transfected with URAT1 expression vector
In general, inhibition refers to the relative decrease from the control value, in per cent. A lower inhibition goes with a weak effect. For `CCCCc1cn(-c2ccc(C(=O)O)c(O)c2)cc1C#N` [Example 355], at 100 µM the inhibition was 89%. On the same count and under the same terms, the figure for `N#Cc1cn(-c2cc(C(=O)O)ccn2)cc1-c1ccccc1` [Example 20, 2-(3-Cyano-4-phenylpyrrole-1-yl)isonicotinic acid] is 77%; for `N#Cc1cn(-c2ccc(C(=O)O)c(O)c2)cc1-c1cccs1` [Example 306] it is 91%.

The next assay deals with serum uric acid. As to the kind of experiment: Serum hypouricemic effect. It is filed as in vivo. Conditions: 1 mg/kg oral, male CD (SD) IGS rats, 2 hours after administration. The procedure: (1) Method for Measurement
Test compounds at 1 mg/kg suspended in 0.5% methylcellulose solution were administered orally to overnight fasted male CD (SD) IGS rats (5-week-old, Charls River Japan). At 2 hours after administration, blood was collected under ether anesthesia from abdominal aorta, and serum was separated according to general method. Serum uric acid values were determined by use of uric acid measurement kit (Uric acid C-Test Wako: Wako), and percent decrease in uric acid was calculated according to the formula described below. Percent decrease in uric acid (%)=(Serum uric acid values in control animals−Serum uric acid values in animals administered test compounds)×100/Serum uric acid values in control animals (2) Results
For `N#Cc1cn(-c2ccc(C(=O)O)c(O)c2)cc1-c1ccccc1` [Example 301], the “Percent decrease in uric acid (hypouricemic effect)” value is “over 50%”. On to `N#Cc1cn(-c2ccc(C(=O)O)c(O)c2)cc1-c1ccsc1` [Example 314], for which the “Percent decrease in uric acid (hypouricemic effect)” value is “over 50%”.
